Measurements from PubChem BioAssay AID1919003 (Molecular Pharmacology Branch, DTP, NCI, 2023).
Several values for one entry are separate records, joined by “and”; a condition that tells them apart may be missing. Equal entries are not always repeated.

System: 786-0 complex spheroids with HUVEC/MSC, growth % test/control
Assay: Anticancer human tumor 786-0 cell line growth inhibition [AhR];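 further: compound exposure lasted seven days before the read-out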
Settings: for viability, T/C: stronger effect = lower value
How it was run: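 Agents were dosed in half-log steps down from roughly clinical Cmax, or from 10 microM where Cmax was unknown, alone and with AhR antagonists. Read-out: percent test/control growth of tumor spheroids containing HUVEC and MSC stromal cells.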

[1] = curve of first compound, second compound 0.1 µM
[2] = curve of first compound, second compound 0.316 µM
[3] = curve of first compound, second compound 1 µM
[4] = curve of first compound, second compound 3.16 µM
[5] = curve of first compound, second compound 10 µM
[6] = second compound 0.1 µM, first compound 0.0316 µM
[7] = second compound 0.1 µM, first compound 0.1 µM
[8] = second compound 0.1 µM, first compound 0.316 µM
[9] = second compound 0.1 µM, first compound 1 µM
[10] = second compound 0.1 µM, first compound 3.16 µM
[11] = second compound 0.1 µM, first compound 10 µM
[12] = second compound 0.316 µM, first compound 0.0316 µM
[13] = second compound 0.316 µM, first compound 0.1 µM
[14] = second compound 0.316 µM, first compound 0.316 µM
[15] = second compound 0.316 µM, first compound 1 µM
[16] = second compound 0.316 µM, first compound 3.16 µM
[17] = second compound 0.316 µM, first compound 10 µM
[18] = second compound 1 µM, first compound 0.0316 µM
[19] = second compound 1 µM, first compound 0.1 µM
[20] = second compound 1 µM, first compound 0.316 µM
[21] = second compound 1 µM, first compound 1 µM
[22] = second compound 1 µM, first compound 3.16 µM
[23] = second compound 1 µM, first compound 10 µM
[24] = second compound 3.16 µM, first compound 0.0316 µM
[25] = second compound 3.16 µM, first compound 0.1 µM
[26] = second compound 3.16 µM, first compound 0.316 µM
[27] = second compound 3.16 µM, first compound 1 µM
[28] = second compound 3.16 µM, first compound 3.16 µM
[29] = second compound 3.16 µM, first compound 10 µM
[30] = second compound 10 µM, first compound 0.0316 µM
[31] = second compound 10 µM, first compound 0.1 µM
[32] = second compound 10 µM, first compound 0.316 µM
[33] = second compound 10 µM, first compound 1 µM
[34] = second compound 10 µM, first compound 3.16 µM
[35] = second compound 10 µM, first compound 10 µM

CC1COCCN1c1cc(C2(S(C)(=N)=O)CC2)nc(-c2ccnc3[nH]ccc23)n1 (stereo unspecified) + Cc1cncc(-c2nc(NCCc3c[nH]c4ccccc34)c3ncn(C(C)C)c3n2)c1
IC50 [1]: 7110 nM | IC50 [2]: 6480 nM | IC50 [3]: 4840 nM | IC50 [4]: 1230 nM | IC50 [5]: < 31.6 nM | viability, T/C [6]: 107% | viability, T/C [7]: 118% | viability, T/C [8]: 116% | viability, T/C [9]: 113% | viability, T/C [10]: 97.7% | viability, T/C [11]: 29.8% | viability, T/C [12]: 122% | viability, T/C [13]: 117% | viability, T/C [14]: 112% | viability, T/C [15]: 108% | viability, T/C [16]: 91.9% | viability, T/C [17]: 25.3% | viability, T/C [18]: 100% | viability, T/C [19]: 110% | viability, T/C [20]: 105% | viability, T/C [21]: 125% | viability, T/C [22]: 67% | viability, T/C [23]: 20.9% | viability, T/C [24]: 62.4% | viability, T/C [25]: 64.5% | viability, T/C [26]: 69% | viability, T/C [27]: 53.6% | viability, T/C [28]: 26.9% | viability, T/C [29]: 5.56% | viability, T/C [30]: 18.2% | viability, T/C [31]: 18.7% | viability, T/C [32]: 20.6% | viability, T/C [33]: 17.5% | viability, T/C [34]: 3.02% | viability, T/C [35]: 0.89%

CCc1c2c(nc3ccc(O)cc13)-c1cc3c(c(=O)n1C2)COC(=O)[C@]3(O)CC
viability, T/C (compound 0.000949 µM): 86.2% and 105% and 92.8% | viability, T/C (compound 0.003 µM): 71.8% and 98.8% and 87.3% | viability, T/C (compound 0.00949 µM): 17.6% and 23.2% and 15.3% | viability, T/C (compound 0.03 µM): 5.33% and 8.68% and 6.03% | viability, T/C (compound 0.0949 µM): 2.54% and 5.4% and 3.46% | viability, T/C (compound 0.3 µM): 2.09% and 4.14% and 2.23% | IC50 (curve of compound): 4.77 nM and 6.31 nM and 5.45 nM

NS(=O)(=O)OCC1CC(n2ccc3c(NC4CCc5ccccc54)ncnc32)CC1O (stereo unspecified) + Cc1ccccc1N=Nc1ccc(NC(=O)c2ccnn2C)c(C)c1
IC50 [1]: 563 nM | IC50 [2]: 652 nM | IC50 [3]: 499 nM | IC50 [4]: 437 nM | IC50 [5]: 374 nM | viability, T/C [6]: 90% | viability, T/C [7]: 78.6% | viability, T/C [8]: 65.5% | viability, T/C [9]: 37% | viability, T/C [10]: 8.68% | viability, T/C [11]: 5.47% | viability, T/C [12]: 87.3% | viability, T/C [13]: 69.5% | viability, T/C [14]: 68.1% | viability, T/C [15]: 42.2% | viability, T/C [16]: 10.6% | viability, T/C [17]: 6.57% | viability, T/C [18]: 88% | viability, T/C [19]: 68% | viability, T/C [20]: 63.2% | viability, T/C [21]: 37.5% | viability, T/C [22]: 9.47% | viability, T/C [23]: 5.05% | viability, T/C [24]: 73.8% | viability, T/C [25]: 65% | viability, T/C [26]: 59.4% | viability, T/C [27]: 29.1% | viability, T/C [28]: 9.11% | viability, T/C [29]: 4.17% | viability, T/C [30]: 76.1% | viability, T/C [31]: 69.5% | viability, T/C [32]: 54.3% | viability, T/C [33]: 27.4% | viability, T/C [34]: 11.3% | viability, T/C [35]: 6.68%

O=C(C=Cc1cccc(S(=O)(=O)Nc2ccccc2)c1)NO
viability, T/C (compound 0.0316 µM): 104% and 102% and 97.4% | viability, T/C (compound 0.1 µM): 101% and 99.7% and 102% | viability, T/C (compound 0.316 µM): 101% and 103% and 102% | viability, T/C (compound 1 µM): 101% and 102% and 112% | viability, T/C (compound 3.16 µM): 75.2% and 93.4% and 85.6% | viability, T/C (compound 10 µM): 16.8% and 22.8% and 12.4% | IC50 (curve of compound): 5200 nM and 6410 nM and 5530 nM

O=C(C=Cn1cnc(-c2cc(C(F)(F)F)cc(C(F)(F)F)c2)n1)NNc1cnccn1
viability, T/C (compound 0.00949 µM): 106% (2×) and 101% | viability, T/C (compound 0.03 µM): 110% and 108% and 112% | viability, T/C (compound 0.0949 µM): 109% and 107% and 105% | viability, T/C (compound 0.3 µM): 66.8% and 69.5% and 52.4% | viability, T/C (compound 0.949 µM): 47.5% and 48.1% and 38.7% | viability, T/C (compound 3 µM): 20.5% and 24.1% and 16.9% | IC50 (curve of compound): 700 nM and 745 nM and 356 nM
